# Data taken from the kinase profiling compilation of Christmann-Franck et al. (2016).
# Assays:
# Experiment in all cases: KINOMEscan competition binding
# Conditions in all cases: compound 10.0 µM
# ACVR1B (human) = ACVR1B (human) (UniProt P36896)
# ALK (human) = ALK (human) (UniProt Q9UM73)
# AURKA (human) = AURKA (human) (UniProt O14965)
# BRSK1 (human) = BRSK1 (human) (UniProt Q8TDC3)
# CAMK2B (human) = CAMK2B (human) (UniProt Q13554)
# CAMK2G (human) = CAMK2G (human) (UniProt Q13555)
# CAMKK1 (human) = CAMKK1 (human) (UniProt Q8N5S9)
# CDC42BPB (human) = CDC42BPB (human) (UniProt Q9Y5S2)
# CDC42BPG (human) = CDC42BPG (human) (UniProt Q6DT37)
# CDK15 (human) = CDK15 (human) (UniProt Q96Q40)
# Sequence of CDK15 (human) (Q96Q40 whole entry, looked up): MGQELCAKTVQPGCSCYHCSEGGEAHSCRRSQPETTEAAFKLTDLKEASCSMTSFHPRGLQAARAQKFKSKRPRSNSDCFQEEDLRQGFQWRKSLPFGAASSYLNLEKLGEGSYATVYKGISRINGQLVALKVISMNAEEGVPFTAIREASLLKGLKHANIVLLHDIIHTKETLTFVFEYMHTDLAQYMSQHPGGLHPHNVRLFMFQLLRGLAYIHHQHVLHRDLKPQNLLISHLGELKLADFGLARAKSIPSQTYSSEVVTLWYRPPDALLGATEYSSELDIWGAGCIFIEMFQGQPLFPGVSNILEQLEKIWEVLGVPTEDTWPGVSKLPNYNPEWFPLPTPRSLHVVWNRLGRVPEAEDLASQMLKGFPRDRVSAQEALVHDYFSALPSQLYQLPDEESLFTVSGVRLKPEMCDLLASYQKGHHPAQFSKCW
# CDK5 (human) = CDK5 (human) (UniProt Q00535)
# CLK4 (human) = CLK4 (human) (UniProt Q9HAZ1)
# CSF1R (human) = CSF1R (human) (UniProt P07333)
# CSNK1A1L (human) = CSNK1A1L (human) (UniProt Q8N752)
# Sequence of CSNK1A1L (human) (Q8N752 whole entry, looked up): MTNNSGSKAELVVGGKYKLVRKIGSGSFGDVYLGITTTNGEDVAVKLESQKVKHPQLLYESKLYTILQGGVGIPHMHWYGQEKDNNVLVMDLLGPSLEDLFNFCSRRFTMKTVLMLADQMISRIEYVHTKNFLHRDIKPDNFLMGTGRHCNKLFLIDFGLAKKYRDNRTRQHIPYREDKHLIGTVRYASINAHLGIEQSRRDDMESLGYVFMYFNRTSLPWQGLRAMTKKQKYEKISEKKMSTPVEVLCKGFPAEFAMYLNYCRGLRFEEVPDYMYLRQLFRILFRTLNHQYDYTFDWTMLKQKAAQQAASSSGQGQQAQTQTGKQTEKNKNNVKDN
# EIF2AK2 (human) = EIF2AK2 (human) (UniProt P19525)
# Sequence of EIF2AK2 (human) (P19525 whole entry, looked up): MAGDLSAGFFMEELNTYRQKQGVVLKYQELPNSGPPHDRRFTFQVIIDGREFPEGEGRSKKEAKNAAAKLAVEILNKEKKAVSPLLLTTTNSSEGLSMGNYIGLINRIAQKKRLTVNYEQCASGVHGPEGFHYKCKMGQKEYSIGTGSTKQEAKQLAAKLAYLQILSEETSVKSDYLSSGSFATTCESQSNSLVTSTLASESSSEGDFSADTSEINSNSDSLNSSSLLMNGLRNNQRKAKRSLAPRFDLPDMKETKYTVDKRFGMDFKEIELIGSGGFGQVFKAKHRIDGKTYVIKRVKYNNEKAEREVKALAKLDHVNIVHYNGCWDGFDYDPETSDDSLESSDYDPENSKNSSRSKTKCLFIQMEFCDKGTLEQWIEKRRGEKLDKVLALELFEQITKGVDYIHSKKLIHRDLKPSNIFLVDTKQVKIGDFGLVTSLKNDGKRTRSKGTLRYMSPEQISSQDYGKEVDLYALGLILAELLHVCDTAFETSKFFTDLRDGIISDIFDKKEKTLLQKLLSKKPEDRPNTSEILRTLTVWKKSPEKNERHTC
# EPHA1 (human) = EPHA1 (human) (UniProt P21709)
# Sequence of EPHA1 (human) (P21709 whole entry, looked up): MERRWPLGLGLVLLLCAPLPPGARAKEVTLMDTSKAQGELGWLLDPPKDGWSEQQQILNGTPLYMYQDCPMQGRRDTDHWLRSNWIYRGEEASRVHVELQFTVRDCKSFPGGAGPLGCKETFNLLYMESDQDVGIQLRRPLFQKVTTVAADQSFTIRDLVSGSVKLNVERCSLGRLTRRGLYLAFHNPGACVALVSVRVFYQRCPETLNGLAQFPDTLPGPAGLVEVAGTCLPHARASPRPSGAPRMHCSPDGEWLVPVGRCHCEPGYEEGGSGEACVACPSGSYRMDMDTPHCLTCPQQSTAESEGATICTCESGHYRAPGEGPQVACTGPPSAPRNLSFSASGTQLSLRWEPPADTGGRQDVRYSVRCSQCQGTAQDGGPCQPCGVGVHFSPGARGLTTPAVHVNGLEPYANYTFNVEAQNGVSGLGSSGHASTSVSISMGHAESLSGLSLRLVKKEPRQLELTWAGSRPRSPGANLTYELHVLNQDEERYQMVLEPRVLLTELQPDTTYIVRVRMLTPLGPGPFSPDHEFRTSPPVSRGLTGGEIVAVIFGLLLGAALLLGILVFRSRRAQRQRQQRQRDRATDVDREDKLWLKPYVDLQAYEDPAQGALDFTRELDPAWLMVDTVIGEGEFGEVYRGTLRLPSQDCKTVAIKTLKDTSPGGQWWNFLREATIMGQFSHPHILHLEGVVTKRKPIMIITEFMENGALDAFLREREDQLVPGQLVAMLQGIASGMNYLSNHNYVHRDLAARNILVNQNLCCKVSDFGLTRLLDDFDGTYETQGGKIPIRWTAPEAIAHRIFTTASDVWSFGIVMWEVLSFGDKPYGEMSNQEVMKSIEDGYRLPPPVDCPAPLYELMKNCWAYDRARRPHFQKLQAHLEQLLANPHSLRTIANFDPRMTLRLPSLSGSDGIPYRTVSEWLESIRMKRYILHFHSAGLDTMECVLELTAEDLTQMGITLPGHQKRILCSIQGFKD
# EPHA4 (human) = EPHA4 (human) (UniProt P54764)
# Sequence of EPHA4 (human) (P54764 whole entry, looked up): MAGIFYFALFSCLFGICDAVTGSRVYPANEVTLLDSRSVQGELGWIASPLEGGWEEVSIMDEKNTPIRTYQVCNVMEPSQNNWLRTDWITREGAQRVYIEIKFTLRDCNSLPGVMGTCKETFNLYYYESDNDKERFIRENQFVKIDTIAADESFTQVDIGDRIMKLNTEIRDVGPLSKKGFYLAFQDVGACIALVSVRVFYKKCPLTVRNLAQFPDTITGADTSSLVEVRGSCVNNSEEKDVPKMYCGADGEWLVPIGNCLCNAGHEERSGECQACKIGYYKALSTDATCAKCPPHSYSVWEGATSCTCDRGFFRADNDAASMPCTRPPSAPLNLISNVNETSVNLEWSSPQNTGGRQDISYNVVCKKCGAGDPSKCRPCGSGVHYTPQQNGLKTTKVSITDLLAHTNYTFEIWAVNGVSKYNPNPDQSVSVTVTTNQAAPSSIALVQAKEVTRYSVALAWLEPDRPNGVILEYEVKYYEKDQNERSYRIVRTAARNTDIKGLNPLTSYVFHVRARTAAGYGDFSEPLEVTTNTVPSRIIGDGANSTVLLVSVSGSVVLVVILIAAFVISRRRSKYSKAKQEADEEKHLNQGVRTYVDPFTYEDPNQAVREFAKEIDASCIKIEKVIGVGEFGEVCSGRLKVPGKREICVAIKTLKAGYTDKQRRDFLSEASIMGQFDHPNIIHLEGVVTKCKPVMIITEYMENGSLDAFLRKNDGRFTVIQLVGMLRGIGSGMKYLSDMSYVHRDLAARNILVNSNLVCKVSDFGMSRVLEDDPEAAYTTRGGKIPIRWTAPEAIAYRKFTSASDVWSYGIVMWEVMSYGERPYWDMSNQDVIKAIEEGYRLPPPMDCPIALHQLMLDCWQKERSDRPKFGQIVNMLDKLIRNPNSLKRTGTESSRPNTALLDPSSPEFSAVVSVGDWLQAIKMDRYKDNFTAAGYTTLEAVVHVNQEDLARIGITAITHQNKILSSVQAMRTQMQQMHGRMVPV
# EPHB4 (human) = EPHB4 (human) (UniProt P54760)
# FGFR3 (human) = FGFR3 (human) (UniProt P22607)
# FLT3 (human) = FLT3 (human) (UniProt P36888)
# [1] = target: JAK3 JH1 catalytic (human) (UniProt P52333)
# KDR (human) = KDR (human) (UniProt P35968)
# LCK (human) = LCK (human) (UniProt P06239)
# Sequence of LCK (human) (P06239 whole entry, looked up): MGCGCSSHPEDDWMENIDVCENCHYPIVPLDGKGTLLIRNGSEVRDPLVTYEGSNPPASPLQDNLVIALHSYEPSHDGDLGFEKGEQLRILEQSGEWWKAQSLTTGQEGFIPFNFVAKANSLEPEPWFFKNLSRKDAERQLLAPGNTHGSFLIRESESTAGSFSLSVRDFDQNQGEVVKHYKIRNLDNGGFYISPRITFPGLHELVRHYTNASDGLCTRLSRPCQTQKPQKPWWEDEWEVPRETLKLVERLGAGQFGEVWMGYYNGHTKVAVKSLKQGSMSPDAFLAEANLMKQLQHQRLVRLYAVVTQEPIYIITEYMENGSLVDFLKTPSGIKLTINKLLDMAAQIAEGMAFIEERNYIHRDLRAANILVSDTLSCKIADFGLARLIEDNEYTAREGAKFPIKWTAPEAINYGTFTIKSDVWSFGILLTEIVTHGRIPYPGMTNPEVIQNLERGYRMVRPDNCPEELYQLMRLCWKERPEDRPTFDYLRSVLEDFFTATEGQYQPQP
# MAP3K12 (human) = MAP3K12 (human) (UniProt Q12852)
# MAP3K7 (human) = MAP3K7 (human) (UniProt O43318)
# Sequence of MAP3K7 (human) (O43318 whole entry, looked up): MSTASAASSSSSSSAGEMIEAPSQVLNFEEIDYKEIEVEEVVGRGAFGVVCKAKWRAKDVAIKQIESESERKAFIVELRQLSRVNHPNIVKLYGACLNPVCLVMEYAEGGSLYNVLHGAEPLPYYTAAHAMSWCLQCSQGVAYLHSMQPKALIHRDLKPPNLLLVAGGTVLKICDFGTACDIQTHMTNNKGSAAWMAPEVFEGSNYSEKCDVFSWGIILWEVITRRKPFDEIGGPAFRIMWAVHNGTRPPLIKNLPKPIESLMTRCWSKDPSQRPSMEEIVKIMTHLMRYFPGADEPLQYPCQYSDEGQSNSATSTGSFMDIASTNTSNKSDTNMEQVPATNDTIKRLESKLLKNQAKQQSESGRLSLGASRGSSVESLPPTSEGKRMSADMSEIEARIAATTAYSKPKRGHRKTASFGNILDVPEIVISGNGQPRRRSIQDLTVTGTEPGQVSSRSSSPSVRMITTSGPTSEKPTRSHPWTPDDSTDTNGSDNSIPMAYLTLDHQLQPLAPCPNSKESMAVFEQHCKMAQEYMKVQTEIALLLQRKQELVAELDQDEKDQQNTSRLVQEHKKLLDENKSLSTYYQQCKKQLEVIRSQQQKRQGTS
# MAP4K2 (human) = MAP4K2 (human) (UniProt Q12851)
# PAK6 (human) = PAK6 (human) (UniProt Q9NQU5)
# PIK3CD (human) = PIK3CD (human) (UniProt O00329)
# PLK4 (human) = PLK4 (human) (UniProt O00444)
# PRKAA2 (human) = PRKAA2 (human) (UniProt P54646)
# PRKACB (human) = PRKACB (human) (UniProt P22694)
# RIPK2 (human) = RIPK2 (human) (UniProt O43353)
# RIPK4 (human) = RIPK4 (human) (UniProt P57078)
# RPS6KA1 KD2 (human) = RPS6KA1 KD2 (human) (UniProt Q15418)
# SIK2 (human) = SIK2 (human) (UniProt Q9H0K1)
# SRPK1 (human) = SRPK1 (human) (UniProt Q96SB4)
# STK17A (human) = STK17A (human) (UniProt Q9UEE5)
# [2] = target: TYK2 JH1 catalytic (human) (UniProt P29597)
# [3] = target: TYK2 JH2 pseudokinase (human) (UniProt P29597)
# ULK2 (human) = ULK2 (human) (UniProt Q8IYT8)
# Sequence of CAMK2G (human) (Q13555 whole entry, looked up): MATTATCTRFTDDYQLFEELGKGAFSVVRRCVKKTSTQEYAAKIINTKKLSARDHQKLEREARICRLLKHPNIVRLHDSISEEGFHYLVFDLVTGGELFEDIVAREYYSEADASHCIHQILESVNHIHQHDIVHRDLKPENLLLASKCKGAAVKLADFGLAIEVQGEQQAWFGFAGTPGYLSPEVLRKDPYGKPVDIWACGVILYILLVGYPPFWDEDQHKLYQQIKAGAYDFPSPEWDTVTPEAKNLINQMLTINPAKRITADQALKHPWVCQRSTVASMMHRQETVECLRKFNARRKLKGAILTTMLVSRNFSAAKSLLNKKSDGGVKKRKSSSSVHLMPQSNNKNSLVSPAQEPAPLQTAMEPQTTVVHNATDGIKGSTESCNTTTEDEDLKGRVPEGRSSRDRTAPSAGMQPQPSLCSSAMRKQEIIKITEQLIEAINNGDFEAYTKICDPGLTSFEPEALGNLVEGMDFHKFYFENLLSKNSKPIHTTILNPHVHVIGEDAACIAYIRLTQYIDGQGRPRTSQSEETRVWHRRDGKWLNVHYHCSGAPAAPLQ
SMILES,"kinase still bound, per cent of control (ACVR1B (human))","kinase still bound, per cent of control (ALK (human))","kinase still bound, per cent of control (AURKA (human))","kinase still bound, per cent of control (BRSK1 (human))","kinase still bound, per cent of control (CAMK2B (human))","kinase still bound, per cent of control (CAMK2G (human))","kinase still bound, per cent of control (CAMKK1 (human))","kinase still bound, per cent of control (CDC42BPB (human))","kinase still bound, per cent of control (CDC42BPG (human))","kinase still bound, per cent of control (CDK15 (human))","kinase still bound, per cent of control (CDK5 (human))","kinase still bound, per cent of control (CLK4 (human))","kinase still bound, per cent of control (CSF1R (human))","kinase still bound, per cent of control (CSNK1A1L (human))","kinase still bound, per cent of control (EIF2AK2 (human))","kinase still bound, per cent of control (EPHA1 (human))","kinase still bound, per cent of control (EPHA4 (human))","kinase still bound, per cent of control (EPHB4 (human))","kinase still bound, per cent of control (FGFR3 (human))","kinase still bound, per cent of control (FLT3 (human))",further results
COc1cc(N2CCN(C)CC2)ccc1Nc1nc(N)c(C(=O)c2c(Cl)cccc2Cl)s1,100%,0.35%,100%,91%,20%,17%,6.3%,100%,100%,26%,88%,50%,67%,100%,75%,100%,90%,97%,99%,96%,"kinase still bound, per cent of control [1]: 100%; kinase still bound, per cent of control (KDR (human)): 97%; kinase still bound, per cent of control (LCK (human)): 86%; kinase still bound, per cent of control (MAP3K12 (human)): 97%; kinase still bound, per cent of control (MAP3K7 (human)): 78%; kinase still bound, per cent of control (MAP4K2 (human)): 77%; kinase still bound, per cent of control (PAK6 (human)): 55%; kinase still bound, per cent of control (PIK3CD (human)): 98%; kinase still bound, per cent of control (PLK4 (human)): 100%; kinase still bound, per cent of control (PRKAA2 (human)): 68%; kinase still bound, per cent of control (PRKACB (human)): 100%; kinase still bound, per cent of control (RIPK2 (human)): 70%; kinase still bound, per cent of control (RIPK4 (human)): 96%; kinase still bound, per cent of control (RPS6KA1 KD2 (human)): 58%; kinase still bound, per cent of control (SIK2 (human)): 100%; kinase still bound, per cent of control (SRPK1 (human)): 100%; kinase still bound, per cent of control (STK17A (human)): 100%; kinase still bound, per cent of control [2]: 90%; kinase still bound, per cent of control [3]: 60%; kinase still bound, per cent of control (ULK2 (human)): 72%"
O=C(NC1CC1)c1cccc(-c2ccc3c(NC(=O)C4CC4)n[nH]c3c2)c1,59%,100%,86%,64%,84%,89%,37%,76%,62%,84%,60%,100%,70%,100%,85%,98%,100%,100%,100%,63%,"kinase still bound, per cent of control [1]: 27%; kinase still bound, per cent of control (KDR (human)): 93%; kinase still bound, per cent of control (LCK (human)): 100%; kinase still bound, per cent of control (MAP3K12 (human)): 30%; kinase still bound, per cent of control (MAP3K7 (human)): 56%; kinase still bound, per cent of control (MAP4K2 (human)): 99%; kinase still bound, per cent of control (PAK6 (human)): 61%; kinase still bound, per cent of control (PIK3CD (human)): 85%; kinase still bound, per cent of control (PLK4 (human)): 13%; kinase still bound, per cent of control (PRKAA2 (human)): 45%; kinase still bound, per cent of control (PRKACB (human)): 100%; kinase still bound, per cent of control (RIPK2 (human)): 72%; kinase still bound, per cent of control (RIPK4 (human)): 84%; kinase still bound, per cent of control (RPS6KA1 KD2 (human)): 68%; kinase still bound, per cent of control (SIK2 (human)): 91%; kinase still bound, per cent of control (SRPK1 (human)): 43%; kinase still bound, per cent of control (STK17A (human)): 96%; kinase still bound, per cent of control [2]: 40%; kinase still bound, per cent of control [3]: 32%; kinase still bound, per cent of control (ULK2 (human)): 77%"
C=CC(=O)Nc1cc(NC(=O)c2ccc(C)c(NC(=O)c3ccno3)c2)cc(C(F)(F)F)c1,100%,95%,95%,100%,100%,89%,96%,91%,100%,93%,90%,100%,38%,90%,100%,99%,48%,87%,97%,100%,"kinase still bound, per cent of control [1]: 100%; kinase still bound, per cent of control (KDR (human)): 87%; kinase still bound, per cent of control (LCK (human)): 45%; kinase still bound, per cent of control (MAP3K12 (human)): 100%; kinase still bound, per cent of control (MAP3K7 (human)): 98%; kinase still bound, per cent of control (MAP4K2 (human)): 100%; kinase still bound, per cent of control (PAK6 (human)): 100%; kinase still bound, per cent of control (PIK3CD (human)): 100%; kinase still bound, per cent of control (PLK4 (human)): 91%; kinase still bound, per cent of control (PRKAA2 (human)): 100%; kinase still bound, per cent of control (PRKACB (human)): 100%; kinase still bound, per cent of control (RIPK2 (human)): 100%; kinase still bound, per cent of control (RIPK4 (human)): 86%; kinase still bound, per cent of control (RPS6KA1 KD2 (human)): 100%; kinase still bound, per cent of control (SIK2 (human)): 100%; kinase still bound, per cent of control (SRPK1 (human)): 86%; kinase still bound, per cent of control (STK17A (human)): 100%; kinase still bound, per cent of control [2]: 98%; kinase still bound, per cent of control [3]: 100%; kinase still bound, per cent of control (ULK2 (human)): 100%"
